{"source": "paper PMC9226319", "about": "“Peripherally restricted transthyretin-based delivery system for probes and therapeutics avoiding opioid-related side effects” (Nature Communications, 2022)", "key": {"[1]": {"molecular_target": "human mu-opioid receptors (Homo sapiens, UniProt P35372)", "sequence (P35372 whole entry)": "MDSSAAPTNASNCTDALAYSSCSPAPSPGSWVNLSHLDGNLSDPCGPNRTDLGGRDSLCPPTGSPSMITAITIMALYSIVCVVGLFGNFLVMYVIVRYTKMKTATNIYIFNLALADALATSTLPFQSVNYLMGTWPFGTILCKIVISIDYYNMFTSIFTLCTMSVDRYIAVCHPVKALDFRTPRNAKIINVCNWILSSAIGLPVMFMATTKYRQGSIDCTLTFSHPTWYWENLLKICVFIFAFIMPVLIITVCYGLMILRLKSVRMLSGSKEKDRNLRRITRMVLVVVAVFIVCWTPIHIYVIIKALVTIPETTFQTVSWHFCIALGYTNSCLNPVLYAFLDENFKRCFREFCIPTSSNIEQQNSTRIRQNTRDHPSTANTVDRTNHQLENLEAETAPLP", "test": "biochemical", "assay_type": "binding"}, "purified human TTR": {"molecular_target": "purified human TTR (Homo sapiens, UniProt P02766)", "test": "Fluorescence polarization (FP) binding assay, ligands to TTR in buffer"}, "TTR in human serum": {"molecular_target": "TTR in human serum (Homo sapiens, UniProt P02766)", "test": "TTR serum fluorescent probe exclusion (FPE) selectivity assay", "assay_type": "binding", "settings": "ligand 10 µM; for %FPE probe fluorescence: human serum, replicates"}}, "note": "“And” between values parts separate entries of the source, which are not always exact repeats. Identical values can stand only once.", "data": [{"smiles": "C=CCN1CC[C@]23c4c5ccc(O)c4O[C@H]2[C@@H](OCc2cn(CCOCCOCCNCCCCCCOc4cc(OCCCc6c(C)n[nH]c6C)cc(C(=O)O)c4)nn2)CC[C@@]3(O)[C@H]1C5", "note": "[AG10-L1-Nal]", "values": [{"measurement": "fold decrease in mu-opioid receptor binding affinity when TTR was present", "setting": "[1]", "value": 9, "unit": "fold"}, {"measurement": "fold higher mu-opioid receptor binding affinity than naloxegol", "setting": "[1]", "value": 3.5, "unit": "fold"}, {"measurement": "fold lower mu-opioid receptor binding affinity than naloxone", "setting": "[1]", "value": 3, "unit": "fold"}, {"measurement": "Ki", "setting": "[1]; binding affinity to mu-opioid receptor (Ki)", "value": 0.81, "unit": "nM"}, {"measurement": "Ki", "setting": "[1]; binding affinity to mu-opioid receptor (Ki) in the presence of TTR", "value": 7.4, "unit": "nM"}, {"measurement": "Kd", "setting": "purified human TTR", "value": 485, "unit": "nM"}, {"measurement": "% Fluorescence polarization (mean)", "setting": "purified human TTR; log [nM] inhibitor 0.990", "value": 100.000, "unit": "%"}, {"measurement": "% Fluorescence polarization (mean)", "setting": "purified human TTR; log [nM] inhibitor 1.291", "value": 101.730, "unit": "%"}, {"measurement": "% Fluorescence polarization (mean)", "setting": "purified human TTR; log [nM] inhibitor 1.592", "value": 105.820, "unit": "%"}, {"measurement": "% Fluorescence polarization (mean)", "setting": "purified human TTR; log [nM] inhibitor 1.893", "value": 101.210, "unit": "%"}, {"measurement": "% Fluorescence polarization (mean)", "setting": "purified human TTR; log [nM] inhibitor 2.194", "value": 93.370, "unit": "%"}, {"measurement": "% Fluorescence polarization (mean)", "setting": "purified human TTR; log [nM] inhibitor 2.495", "value": 87.150, "unit": "%"}, {"measurement": "% Fluorescence polarization (mean)", "setting": "purified human TTR; log [nM] inhibitor 2.796", "value": 78.760, "unit": "%"}, {"measurement": "% Fluorescence polarization (mean)", "setting": "purified human TTR; log [nM] inhibitor 3.097", "value": 63.020, "unit": "%"}, {"measurement": "% Fluorescence polarization (mean)", "setting": "purified human TTR; log [nM] inhibitor 3.398", "value": 50.120, "unit": "%"}, {"measurement": "% Fluorescence polarization (mean)", "setting": "purified human TTR; log [nM] inhibitor 3.699", "value": 44.570, "unit": "%"}, {"measurement": "% Fluorescence polarization (mean)", "setting": "purified human TTR; log [nM] inhibitor 4.000", "value": 22.560, "unit": "%"}, {"measurement": "% Fluorescence polarization (mean)", "setting": "purified human TTR; log [nM] inhibitor […]", "value": 0.000, "unit": "%"}, {"measurement": "% TTR occupancy in human serum", "setting": "TTR in human serum; FPE probe 3.6 µM, 3 h reading relative to probe alone, text mean ± s.d., table replicates", "value": "71.5 ± 1.8% and 70.26% and 71.49% and 74.04% and 70.09%"}, {"measurement": "%FPE probe fluorescence", "setting": "TTR in human serum; time 0.000 h", "value": 0.000, "unit": "%"}, {"measurement": "%FPE probe fluorescence", "setting": "TTR in human serum; time 0.083 h", "value": "1.080% and 0.767% and -1.456% and -0.892%"}, {"measurement": "%FPE probe fluorescence", "setting": "TTR in human serum; time 0.250 h", "value": "2.570% and 0.301% and -1.690% and -0.400%"}, {"measurement": "%FPE probe fluorescence", "setting": "TTR in human serum; time 0.500 h", "value": "1.410% and 3.016% and 1.843% and 4.013%"}, {"measurement": "%FPE probe fluorescence", "setting": "TTR in human serum; time 1.000 h", "value": "5.261% and 6.236% and 4.568% and 2.982%"}, {"measurement": "%FPE probe fluorescence", "setting": "TTR in human serum; time 1.250 h", "value": "9.024% and 8.732% and 5.446% and 7.822%"}, {"measurement": "%FPE probe fluorescence", "setting": "TTR in human serum; time 1.500 h", "value": "10.681% and 11.389% and 3.787% and 9.124%"}, {"measurement": "%FPE probe fluorescence", "setting": "TTR in human serum; time 1.750 h", "value": "16.590% and 14.034% and 12.392% and 15.982%"}, {"measurement": "%FPE probe fluorescence", "setting": "TTR in human serum; time 2.000 h", "value": "16.797% and 16.410% and 12.993% and 18.679%"}, {"measurement": "%FPE probe fluorescence", "setting": "TTR in human serum; time 2.250 h", "value": "24.164% and 18.098% and 17.162% and 21.660%"}, {"measurement": "%FPE probe fluorescence", "setting": "TTR in human serum; time 2.500 h", "value": "24.735% and 22.591% and 22.580% and 23.970%"}, {"measurement": "%FPE probe fluorescence", "setting": "TTR in human serum; time 2.750 h", "value": "27.729% and 25.808% and 22.823% and 27.770%"}, {"measurement": "%FPE probe fluorescence", "setting": "TTR in human serum; time 3.000 h", "value": "29.742% and 28.511% and 25.959% and 29.908%"}, {"measurement": "%FPE probe fluorescence", "setting": "TTR in human serum; time 3.500 h", "value": "34.408% and 33.995% and 32.949% and 35.412%"}, {"measurement": "%FPE probe fluorescence", "setting": "TTR in human serum; time 3.750 h", "value": "36.701% and 36.516% and 34.676% and 37.256%"}, {"measurement": "%FPE probe fluorescence", "setting": "TTR in human serum; time 4.000 h", "value": "39.055% and 39.875% and 38.359% and 40.118%"}, {"measurement": "%FPE probe fluorescence", "setting": "TTR in human serum; time 4.250 h", "value": "42.939% and 41.758% and 38.579% and 41.416%"}, {"measurement": "%FPE probe fluorescence", "setting": "TTR in human serum; time 4.500 h", "value": "43.175% and 42.158% and 39.564% and 43.974%"}, {"measurement": "%FPE probe fluorescence", "setting": "TTR in human serum; time 4.750 h", "value": "49.116% and 47.668% and 46.875% and 46.250%"}, {"measurement": "%FPE probe fluorescence", "setting": "TTR in human serum; time 5.000 h", "value": "48.320% and 48.257% and 45.947% and 47.487%"}, {"measurement": "%FPE probe fluorescence", "setting": "TTR in human serum; time 5.250 h", "value": "49.797% and 50.503% and 44.600% and 50.002%"}, {"measurement": "%FPE probe fluorescence", "setting": "TTR in human serum; time 5.500 h", "value": "51.668% and 52.681% and 50.017% and 50.897%"}, {"measurement": "%FPE probe fluorescence", "setting": "TTR in human serum; time 5.750 h", "value": "52.829% and 53.093% and 50.389% and 55.989%"}, {"measurement": "%FPE probe fluorescence", "setting": "TTR in human serum; time 6.000 h", "value": "53.052% and 53.791% and 49.880% and 55.657%"}]}]}
